In paper PMC3570346, “PET imaging of brain inflammation during early epileptogenesis in a rat model of temporal lobe epilepsy” (EJNMMI Research, 2012):

Columns and labels:
[1] = molecular target: T1, Translocator protein (TSPO) (Rattus norvegicus, UniProt P16257); experiment: In vivo [^18F]-PBR111 PET imaging, Vt by two-compartment model with metabolite-corrected plasma input; parameters: Tissue distribution volume (Vt): unit not given here
T1 construct: from tissue; host or cells: brain of living male Wistar rats (control and kainic acid-induced status epilepticus)
From the text: Seven days post-SE, rats were anaesthetised for PET imaging using isoflurane (induction 5%, maintenance 1% to 3%, in medical oxygen), and body temperature was maintained using a feedback-regulated heating pad. A catheter was implanted in the femoral artery as described above. The animal was then placed into the field-of-view of the INVEON PET/CT scanner (Siemens Medical Solutions, Knoxville, TN, USA), and physiological parameters (heart rate, respiration and body temperature) were monitored (BioVet, m2m Imaging Corp., Cleveland, OH, USA) for the entire scanning period. To avoid movement and fix tubing, the animal was restrained in the supine position using a webbed sock and adhesive tape.
The PET scan was started 20 to 30 s before the 1-min infusion of radiotracer (ID = 12.5 to 29.0 MBq, 0.05 to 0.29 nmol, max 0.4 ml in volume, as described above) for the duration of 60 min. Femoral arterial blood samples (approximately 50 μl/sample) were taken at 15-s intervals for 4 min after the commencement of the PET scan, and then at 10-, 20-, 30- and 50-min post-injections. In the last sample (100 μl), metabolites were analysed to confirm the standard metabolite correction and to calculate the partition coefficient at 50 min. Heparinised saline (20 IU) was administered after blood sampling to maintain the blood volume and to prevent hypotension. Plasma samples were collected after 10-min centrifugation of whole blood at 3,000 rpm. Whole blood and plasma samples were counted in a Wallac γ-counter, decay-corrected and weight-normalised. At the end of the PET scanning, a 10-min 70 kV/500 μA computed tomography (CT) scan was performed on each animal (for co-registration with PET data and magnetic resonance imaging (MRI) atlas).
Coincidence events were acquired into list mode files and then histogrammed into […] consecutive frames of variable duration (8 × 15 s, 6 × 20 s, 6 × 60 s, 3 × 180 s, and 5 × 500 s). The volumes were then reconstructed with an iterative algorithm 3D-OSEM/FastMap. PET images (128 × 128 × 159) were co-registered with CT scans and mapped to a MRI-based rat brain atlas. Left and right time activity curves (TACs) were derived from eight VOIs such as the frontal cortex, striatum, parietal cortex, hippocampus, thalamus, amygdala, occipital cortex and colliculi using the Anatomist package ( http://brainvisa.info). Also, the hypothalamus, brainstem, pons and cerebellum were extracted from the reconstructed images. Data were then converted into activity concentration (kBq/ml) using cross calibration factors.
Firstly, a two-compartment model was used to assess the ‘apparent’ volume of distribution (Vt), or the ‘volume’ of the tracer would occupy if the tracers were to adopt the same concentration in the tissue as in the blood. For each VOI, Vt was calculated using their TACs, the metabolite-corrected plasma curve as input function and the whole blood curve to model the kinetics of the vascular fraction (5%) in the cerebral tissue.

[2] = [^18F]-PBR111 metabolite analysis in plasma (solid phase extraction); assay type: in vivo, rat; details: 50-min post-injection
From the text: To establish a standard curve of [^18F]-PBR111 metabolism, blood samples were obtained in four control rats (304 ± 10 g) and six KASE rats (312 ± 8 g, minor to medium SE), which were maintained under anaesthesia to mimic the conditions of the PET scan (Table 1). Animals were anaesthetised with 5% isoflurane for induction and 1% to 3% for maintenance, administered in medical oxygen. An incision was made in the inner thigh of the hind leg, and the femoral artery was exposed and loosely tied off after blunt dissection of the surrounding tissue. A polyethylene cannula filled with heparinised saline (20 IU/ml) was placed into the femoral artery and threaded 3 cm proximally.
Animals were injected intravenously with [^18F]-PBR111 (injected dose (ID) = 14.1 to 38.7 MBq). […] The line was flushed with saline, and the remaining radioactivity was measured in the line and syringe. […] Plasma samples (0.1 ml) were weighed and the radioactivity was measured in a Wallac γ-counter. […]
SPE analysis was performed on Oasis cartridges (Waters Oasis® HLB, 30 μm, 60 mg) that were preconditioned with 1 ml ethanol followed by 5 ml water. […] The radioactivity in each fraction and that remaining on the cartridge was measured with a Wallac γ-counter. Data were expressed as the percentage of unmetabolised parent compound (^18F]-PBR111) in the plasma sample. […]

[3] = Stability of [^18F]-PBR111 in whole rat blood (1 h on the bench); assay type: in vitro ADME; details: samples from 2- and 5-min post-injection left on the bench for 1 h vs processed immediately
Experimental: Animals were injected intravenously with [^18F]-PBR111 (injected dose (ID) = 14.1 to 38.7 MBq). The tracer was infused via the dorsal penile vein (maximum volume of 0.3 ml) using a Harvard Apparatus Pump 11 plus syringe pump (Holliston, MA, USA) over a constant time interval of 1 min. The line was flushed with saline, and the remaining radioactivity was measured in the line and syringe. Different ranges of tracer mass (0.07 to 4.00 nmol) were injected to evaluate whether this would affect the tracer metabolism. Arterial blood samples (0.2 ml) were withdrawn via a cannula implanted in the femoral artery from 2 to 60 min after the start of injection. The whole blood was then centrifuged at 3,000 rpm for 10 min, and the plasma was collected. Plasma samples (0.1 ml) were weighed and the radioactivity was measured in a Wallac γ-counter. At 2- and 5-min post-injections, the samples were taken in duplicate. One sample was left on the bench for 1 h, and the other was processed immediately to evaluate the stability in whole rat blood.

[4] = molecular target: T2, TSPO (Rattus norvegicus, UniProt P16257); experiment: In vitro [^125I]-CLINDE autoradiography on coronal brain sections (post-mortem); assay type: binding
T2 construct: from tissue; host or cells: coronal cryostat sections (20 μm) of frozen rat brain, control and KASE animals
Experimental: TSPO binding density was assessed using the selective TSPO ligands, ^125I]-CLINDE and ^18 F]-PBR111 as described previously. Briefly, adjacent sets of unfixed […] sections were incubated in triplicate with 3 nM ^125I]-CLINDE or 4 nM ^18F]-PBR111 in 50 mM Tris buffer (pH 7.4 at 4°C) for 1 h. Non-specific binding was assessed with co-incubation with 10 μM PK11195 (Sigma-Aldrich). Sections were washed in ice cold Tris buffer (2 × 2 min), then distilled water (1 min), before being air dried on a slide warmer at 37°C. They were exposed to film, with ^14C] polymer standards (ARC, USA) for calibration of optical density to becquerel per milligram activity. Films were scanned using a BioRad GS-800 calibrated densitometer (Bio-Rad Laboratories, Hercules, CA, USA), and exposure times were chosen such that the optical density range of the sections was within the pseudolinear response range of the film.
Autoradiographic images were calibrated (cubic fit between optical density and [^14C]-standard values) and quantified using ImageJ ( http://rsbweb.nih.gov/ij/). […] Regions of interest were drawn blinded for control and KASE groups, converted to kilobecquerel per milligram and specific binding calculated.
Coronal brain sections (20 μm, −3.24 mm from bregma according to [21]) were cut using a cryostat, thaw-mounted onto Polysine® microscope slides (LabServ, Australia), and stored at −80°C. During cutting, pictures were taken in EB-injected animals to evaluate extravasation macroscopically. Adjacent sets of unfixed rat brain sections were analysed in triplicate for quantitative autoradiography for TSPO with ^125I]-CLINDE, OX-42 (microglial activation) immunohistochemistry and cresyl violet (cell loss).
Methodology regarding immunohistochemistry was performed as above. Semi-quantitative analysis included visual scoring of OX-42 signal as follows: mild (+), moderate (++) and intense (+++) OX-42 signals. For autoradiography, a preincubation step of 15 min in Tris buffer (50 mM, pH 7.4) was added to remove exogenous TSPO ligand. TSPO binding was assessed as described above in the cortex, corpus callosum, hippocampus and hippocampal subregions (CA1, CA2 and CA3/hilus), thalamus, hypothalamus, amygdala and piriform cortex. Histological verification of cell loss in hippocampal pyramidal cell layers (CA1, CA2, CA3 and hilus) was performed on Nissl-stained sections (using Cresyl Echt Violet) blinded for the treatment group.

T2 sequence (P16257 whole entry): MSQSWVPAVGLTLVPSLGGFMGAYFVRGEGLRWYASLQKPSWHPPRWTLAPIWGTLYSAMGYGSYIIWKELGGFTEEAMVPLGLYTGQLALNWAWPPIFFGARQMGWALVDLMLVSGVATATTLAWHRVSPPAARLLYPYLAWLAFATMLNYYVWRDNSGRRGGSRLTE
T1 sequence (P16257 whole entry): as above

CCN(CC)C(=O)Cc1c(-c2ccc(OCCC[18F])cc2)nc2ccc(Cl)cn12 [[^18F]-PBR111]
Increase (%) of Vt, KASE vs control ([1]; Amygdala, Left): 288%
Tissue distribution volume (Vt) ([1]; Amygdala, Left, Control (N = 4)): 5.3 ± 0.8
Tissue distribution volume (Vt) ([1]; Amygdala, Left, KASE (N = 4), 7 days post-SE): 20.6 ± 2.8
Increase (%) of Vt, KASE vs control ([1]; Amygdala, Right): 284%
Tissue distribution volume (Vt) ([1]; Amygdala, Right, Control (N = 4)): 6.1 ± 0.7
Tissue distribution volume (Vt) ([1]; Amygdala, Right, KASE (N = 4), 7 days post-SE): 23.4 ± 4.8
Increase (%) of Vt, KASE vs control ([1]; Brainstem): 41%
Tissue distribution volume (Vt) ([1]; Brainstem, Control (N = 4)): 4.7 ± 0.8
Tissue distribution volume (Vt) ([1]; Brainstem, KASE (N = 4), 7 days post-SE): 6.7 ± 1.0
Increase (%) of Vt, KASE vs control ([1]; Cerebellum): 43%
Tissue distribution volume (Vt) ([1]; Cerebellum, Control (N = 4)): 7.5 ± 0.8
Tissue distribution volume (Vt) ([1]; Cerebellum, KASE (N = 4), 7 days post-SE): 10.6 ± 1.3
Increase (%) of Vt, KASE vs control ([1]; Colliculi, Left): 44%
Tissue distribution volume (Vt) ([1]; Colliculi, Left, Control (N = 4)): 4.0 ± 1.0
Tissue distribution volume (Vt) ([1]; Colliculi, Left, KASE (N = 4), 7 days post-SE): 5.8 ± 1.1
Increase (%) of Vt, KASE vs control ([1]; Colliculi, Right): 70%
Tissue distribution volume (Vt) ([1]; Colliculi, Right, Control (N = 4)): 4.1 ± 1.1
Tissue distribution volume (Vt) ([1]; Colliculi, Right, KASE (N = 4), 7 days post-SE): 6.9 ± 1.8
Increase (%) of Vt, KASE vs control ([1]; Frontal cortex, Left): 108%
Tissue distribution volume (Vt) ([1]; Frontal cortex, Left, Control (N = 4)): 5.4 ± 1.0
Tissue distribution volume (Vt) ([1]; Frontal cortex, Left, KASE (N = 4), 7 days post-SE): 11.3 ± 2.4
Increase (%) of Vt, KASE vs control ([1]; Frontal cortex, Right): 98%
Tissue distribution volume (Vt) ([1]; Frontal cortex, Right, Control (N = 4)): 5.7 ± 1.2
Tissue distribution volume (Vt) ([1]; Frontal cortex, Right, KASE (N = 4), 7 days post-SE): 11.2 ± 2.4
Increase (%) of Vt, KASE vs control ([1]; Hippocampus, Left): 154%
Tissue distribution volume (Vt) ([1]; Hippocampus, Left, Control (N = 4)): 3.6 ± 0.5
Tissue distribution volume (Vt) ([1]; Hippocampus, Left, KASE (N = 4), 7 days post-SE): 9.1 ± 1.1
Increase (%) of Vt, KASE vs control ([1]; Hippocampus, Right): 159%
Tissue distribution volume (Vt) ([1]; Hippocampus, Right, Control (N = 4)): 3.6 ± 0.4
Tissue distribution volume (Vt) ([1]; Hippocampus, Right, KASE (N = 4), 7 days post-SE): 9.4 ± 1.6
Increase (%) of Vt, KASE vs control ([1]; Hypothalamus): 104%
Tissue distribution volume (Vt) ([1]; Hypothalamus, Control (N = 4)): 4.0 ± 0.7
Tissue distribution volume (Vt) ([1]; Hypothalamus, KASE (N = 4), 7 days post-SE): 8.2 ± 1.4
Increase (%) of Vt, KASE vs control ([1]; Occipital cortex, Left): 53%
Tissue distribution volume (Vt) ([1]; Occipital cortex, Left, Control (N = 4)): 9.8 ± 3.4
Tissue distribution volume (Vt) ([1]; Occipital cortex, Left, KASE (N = 4), 7 days post-SE): 15.1 ± 3.5
Increase (%) of Vt, KASE vs control ([1]; Occipital cortex, Right): 62%
Tissue distribution volume (Vt) ([1]; Occipital cortex, Right, Control (N = 4)): 9.3 ± 1.4
Tissue distribution volume (Vt) ([1]; Occipital cortex, Right, KASE (N = 4), 7 days post-SE): 15.0 ± 1.4
Increase (%) of Vt, KASE vs control ([1]; Parietal cortex, Left): 110%
Tissue distribution volume (Vt) ([1]; Parietal cortex, Left, Control (N = 4)): 4.5 ± 0.6
Tissue distribution volume (Vt) ([1]; Parietal cortex, Left, KASE (N = 4), 7 days post-SE): 9.5 ± 1.1
Increase (%) of Vt, KASE vs control ([1]; Parietal cortex, Right): 136%
Tissue distribution volume (Vt) ([1]; Parietal cortex, Right, Control (N = 4)): 4.9 ± 0.8
Tissue distribution volume (Vt) ([1]; Parietal cortex, Right, KASE (N = 4), 7 days post-SE): 11.6 ± 2.0
Increase (%) of Vt, KASE vs control ([1]; Pons): 78%
Tissue distribution volume (Vt) ([1]; Pons, Control (N = 4)): 4.2 ± 0.9
Tissue distribution volume (Vt) ([1]; Pons, KASE (N = 4), 7 days post-SE): 7.5 ± 1.8
Increase (%) of Vt, KASE vs control ([1]; Striatum, Left): 180%
Tissue distribution volume (Vt) ([1]; Striatum, Left, Control (N = 4)): 2.8 ± 0.6
Tissue distribution volume (Vt) ([1]; Striatum, Left, KASE (N = 4), 7 days post-SE): 8.0 ± 1.2
Increase (%) of Vt, KASE vs control ([1]; Striatum, Right): 156%
Tissue distribution volume (Vt) ([1]; Striatum, Right, Control (N = 4)): 3.0 ± 0.5
Tissue distribution volume (Vt) ([1]; Striatum, Right, KASE (N = 4), 7 days post-SE): 7.8 ± 1.1
Increase (%) of Vt, KASE vs control ([1]; Thalamus, Left): 173%
Tissue distribution volume (Vt) ([1]; Thalamus, Left, Control (N = 4)): 2.6 ± 0.5
Tissue distribution volume (Vt) ([1]; Thalamus, Left, KASE (N = 4), 7 days post-SE): 7.0 ± 1.8
Increase (%) of Vt, KASE vs control ([1]; Thalamus, Right): 155%
Tissue distribution volume (Vt) ([1]; Thalamus, Right, Control (N = 4)): 2.8 ± 0.5
Tissue distribution volume (Vt) ([1]; Thalamus, Right, KASE (N = 4), 7 days post-SE): 7.1 ± 1.4
Percentage of parent compound in plasma ([2]; control animals): 20.8 ± 1.3%
Percentage of parent compound in plasma ([2]; severe SE animals): 20.1 ± 1.3%
Stability in whole rat blood [3]: not further metabolised in vitro in whole rat blood

CCN(CC)C(=O)Cc1c(-c2ccc(I)cc2)nc2ccc(Cl)cn12 [[^125I]-CLINDE]
% increase of specific binding, KASE vs control ([4]; Hippocampus (CA1)): 613%
% increase of specific binding, KASE vs control ([4]; Hippocampus (CA2)): 491%
% increase of specific binding, KASE vs control ([4]; Hippocampus (CA3)/hilus): 860%
% increase of specific binding, KASE vs control ([4]; Hippocampus (whole, dorsal)): 226%
